{"source": "paper PMC10535199", "about": "“A Combined Experimental and Computational Study of Novel Benzotriazinone Carboxamides as Alpha-Glucosidase Inhibitors” (Molecules, 2023)", "key": {"[1]": {"molecular_target": "T1, Alpha-glucosidase (Saccharomyces cerevisiae, UniProt P53341)", "T1 construct": "purchased 5003-1KU Type I", "T1 sequence (P53341 whole entry)": "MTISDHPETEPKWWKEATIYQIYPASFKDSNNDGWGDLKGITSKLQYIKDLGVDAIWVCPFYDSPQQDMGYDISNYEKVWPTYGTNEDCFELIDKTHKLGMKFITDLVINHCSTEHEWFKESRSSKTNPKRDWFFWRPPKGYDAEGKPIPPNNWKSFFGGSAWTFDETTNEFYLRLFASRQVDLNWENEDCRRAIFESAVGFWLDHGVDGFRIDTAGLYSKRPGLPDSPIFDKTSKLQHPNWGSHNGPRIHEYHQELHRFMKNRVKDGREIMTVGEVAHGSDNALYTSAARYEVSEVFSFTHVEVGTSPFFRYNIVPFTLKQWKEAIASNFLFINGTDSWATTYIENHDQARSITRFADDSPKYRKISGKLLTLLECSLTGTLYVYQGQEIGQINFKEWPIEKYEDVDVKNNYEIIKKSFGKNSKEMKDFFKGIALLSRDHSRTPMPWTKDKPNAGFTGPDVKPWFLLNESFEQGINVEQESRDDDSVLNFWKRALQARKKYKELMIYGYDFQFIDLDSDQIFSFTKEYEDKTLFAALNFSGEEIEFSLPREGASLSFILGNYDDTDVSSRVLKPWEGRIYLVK", "test": "biochemical", "details": "for IC50: pH 6.8, 30 min incubation; for inhibition at 500 µM: pH 6.8, read-out: Inhibition (%) at 0.5 mM", "method": "The alpha-glucosidase inhibitory assay was performed by adopting the method of Pierre et al., with minor modifications. Alpha-glucosidase (Cat No. 5003-1KU Type I) belonging to Saccharomyces cerevisiae was selected for this protocol because its structure and function were similar to yeast and mammalian enzymes. In test tubes, 10 μL of test compound (0.5 mM), 70 μL of saline phosphate buffer (50 mM) to adjust pH at 6.8, and 10 μL of α-glucosidase enzyme (0.0234 units) were added to prepare […] assay mixture. A quantity of 10 μL p-nitrophenyl-α-D-glucopyranoside (0.5 mM, N1377 from Sigma, Burlington, MA, USA) was added to initiate the reaction and tubes were incubated for 30 min. […] Free substrate change in absorbance was monitored at 400 nm. The alpha-glucosidase inhibitory activity was calculated as percentage inhibition by using formula:% Inhibition = [(Abs. of control − Abs. of test)/Abs. of control] × 100\nIC50 values were determined using EZ-Fit enzyme kinetics software version 5.03 (Perrella Scientific Inc. Amherst, Amherst, MA, USA)."}}}
{"compound": "COc1ccccc1NC(=O)CCCn1nnc2ccccc2c1=O", "note": "[14m, N-(2-Methoxyphenyl)-4-(4-oxobenzo[1,2,3]triazin-3(4H)-yl)butanamide]", "values": [{"measurement": "melting point", "result": "139 to 140", "unit": "°C"}, {"measurement": "IC50", "setting": "[1]", "result": "121.3 ± 0.15", "unit": "µM"}, {"measurement": "inhibition at 500 µM", "setting": "[1]", "result": "84.31 ± 0.18", "unit": "%"}]}
{"compound": "Cc1cccc(NC(=O)CCCn2nnc3ccccc3c2=O)c1", "note": "[14l, N-(3-methylphenyl)-4-(4-Oxobenzo[1,2,3]triazin-3(4H)-yl)butanamide]", "values": [{"measurement": "melting point", "result": "105 to 106", "unit": "°C"}, {"measurement": "IC50", "setting": "[1]", "result": "32.14 ± 0.11", "unit": "µM"}, {"measurement": "inhibition at 500 µM", "setting": "[1]", "result": "92.63 ± 0.12", "unit": "%"}]}
{"compound": "COc1ccc(NC(=O)CCCn2nnc3ccccc3c2=O)cc1", "note": "[14n, N-(4-Methoxyphenyl)-4-(4-oxobenzo[1,2,3]triazin-3(4H)-yl)butanamide]", "values": [{"measurement": "melting point", "result": "147 to 148", "unit": "°C"}, {"measurement": "IC50", "setting": "[1]", "result": "75.37 ± 0.14", "unit": "µM"}, {"measurement": "inhibition at 500 µM", "setting": "[1]", "result": "87.46 ± 0.15", "unit": "%"}]}
{"compound": "CCCCCNC(=O)CCCn1nnc2ccccc2c1=O", "note": "[14c, N-pentyl-4-(4-Oxobenzo[1,2,3]triazin-3(4H)-yl)butanamide]", "values": [{"measurement": "melting point", "result": "106 to 107", "unit": "°C"}, {"measurement": "inhibition at 500 µM", "setting": "[1]", "result": "42.34 ± 0.25", "unit": "%"}]}
{"compound": "Cc1ccc(NC(=O)CCCn2nnc3ccccc3c2=O)cc1", "note": "[14k, N-(4-methylphenyl)-4-(4-Oxobenzo[1,2,3]triazin-3(4H)-yl)butanamide]", "values": [{"measurement": "melting point", "result": "175 to 176", "unit": "°C"}, {"measurement": "IC50", "setting": "[1]", "result": "27.13 ± 0.12", "unit": "µM"}, {"measurement": "inhibition at 500 µM", "setting": "[1]", "result": "94.18 ± 0.23", "unit": "%"}]}
{"compound": "O=C(CCCn1nnc2ccccc2c1=O)Nc1cccc(Cl)c1", "note": "[14j, N-(3-Chlorophenyl)-4-(4-oxobenzo[1,2,3]triazin-3(4H)-yl)butanamide]", "values": [{"measurement": "melting point", "result": "209 to 210", "unit": "°C"}, {"measurement": "IC50", "setting": "[1]", "result": "52.01 ± 0.07", "unit": "µM"}, {"measurement": "inhibition at 500 µM", "setting": "[1]", "result": "89.35 ± 0.21", "unit": "%"}]}
{"compound": "Cc1cc(C)cc(NC(=O)CCCn2nnc3ccccc3c2=O)c1", "note": "[14g, N-(3,5-Dimethylphenyl)-4-(4-oxobenzo[1,2,3]triazin-3(4H)-yl)butanamide]", "values": [{"measurement": "melting point", "result": "110 to 111", "unit": "°C"}, {"measurement": "IC50", "setting": "[1]", "result": "196.52 ± 0.08", "unit": "µM"}, {"measurement": "inhibition at 500 µM", "setting": "[1]", "result": "78.32 ± 0.18", "unit": "%"}]}
{"compound": "CCCCCCCNC(=O)CCCn1nnc2ccccc2c1=O", "note": "[14e, N-Heptyl-4-(4-oxobenzo[1,2,3]triazin-3(4H)-yl)butanamide]", "values": [{"measurement": "melting point", "result": "100 to 101", "unit": "°C"}, {"measurement": "inhibition at 500 µM", "setting": "[1]", "result": "40.23 ± 0.21", "unit": "%"}]}
{"compound": "CCCCNC(=O)CCCn1nnc2ccccc2c1=O", "note": "[14b, N-Butyl-4-(4-oxobenzo[1,2,3]triazin-3(4H)-yl)butanamide]", "values": [{"measurement": "melting point", "result": "123 to 124", "unit": "°C"}, {"measurement": "IC50", "setting": "[1]", "result": "243.41 ± 0.18", "unit": "µM"}, {"measurement": "inhibition at 500 µM", "setting": "[1]", "result": "67.53 ± 0.14", "unit": "%"}]}
{"compound": "CCCNC(=O)CCCn1nnc2ccccc2c1=O", "note": "[14a, N-propyl-4-(4-Oxobenzo[1,2,3]triazin-3(4H)-yl)butanamide]", "values": [{"measurement": "melting point", "result": "127 to 128", "unit": "°C"}, {"measurement": "inhibition at 500 µM", "setting": "[1]", "result": "39.13 ± 0.19", "unit": "%"}]}
{"compound": "CCCCCCCCNC(=O)CCCn1nnc2ccccc2c1=O", "note": "[14f, N-Octyl-4-(4-oxobenzo[1,2,3]triazin-3(4H)-yl)butanamide]", "values": [{"measurement": "melting point", "result": "95 to 96", "unit": "°C"}, {"measurement": "inhibition at 500 µM", "setting": "[1]", "result": "30.57 ± 0.16", "unit": "%"}]}
{"compound": "O=C(CCCn1nnc2ccccc2c1=O)Nc1ccc(Br)cc1", "note": "[14h, N-(4-Bromophenyl)-4-(4-oxobenzo[1,2,3]triazin-3(4H)-yl)butanamide]", "values": [{"measurement": "melting point", "result": "115 to 116", "unit": "°C"}, {"measurement": "IC50", "setting": "[1]", "result": "238.15 ± 0.15", "unit": "µM"}, {"measurement": "inhibition at 500 µM", "setting": "[1]", "result": "74.25 ± 0.27", "unit": "%"}]}
{"compound": "CCCCCCNC(=O)CCCn1nnc2ccccc2c1=O", "note": "[14d, N-Hexyl-4-(4-oxobenzo[1,2,3]triazin-3(4H)-yl)butanamide]", "values": [{"measurement": "melting point", "result": "102 to 103", "unit": "°C"}, {"measurement": "IC50", "setting": "[1]", "result": "335.04 ± 0.07", "unit": "µM"}, {"measurement": "inhibition at 500 µM", "setting": "[1]", "result": "66.2 ± 0.11", "unit": "%"}]}
{"compound": "O=C(CCCn1nnc2ccccc2c1=O)Nc1ccc(Cl)cc1", "note": "[14i, N-(4-Chlorophenyl)-4-(4-oxobenzo[1,2,3]triazin-3(4H)-yl)butanamide]", "values": [{"measurement": "melting point", "result": "144 to 145", "unit": "°C"}, {"measurement": "IC50", "setting": "[1]", "result": "163.29 ± 0.13", "unit": "µM"}, {"measurement": "inhibition at 500 µM", "setting": "[1]", "result": "82.77 ± 0.2", "unit": "%"}]}
